Like-named read-outs stand apart in the source and are kept apart here.
What was measured:
[1] = human, in vivo
[2] = Interconversion of Compound A to Compound B; assay type: physicochemical
MCF7 xenograft = MCF7 xenograft model, palbociclib study; assay type: in vivo, NOD/SCID mice; conditions: 28 days; Compound A 30 mg/kg PO QD, fulvestrant 200 mg/kg SC, palbociclib 60 mg/kg PO QD; FIG. 5
Protocol: Female severe combined immunodeficient mouse in non-obese background (NOD/scid) mice were implanted with MCF7 cells and compound administration was initiated once the tumors reached 200 mm^3. Tumor volumes were evaluated twice per week for 28 days. […] Data are presented as mean±standard error of the mean (SEM)
(§1) Briefly, MCF7 cells were orthotopically implanted into the mammary fat pads of NOD/SCID female mice. 17β-estradiol 0.72 mg 90-day pellet (Innovative Research of America) were implanted 2-3 days prior to MCF7 cell implant. […] Compound A- and/or combination partner-treated mice were dosed orally once daily. Fulvestrant-treated mice were dosed subcutaneously twice per week for 2 weeks followed by once weekly for 2 weeks.
(§2) Vehicle for abemaciclib was 1% […] (HEC) in 20 mM HCl pH2. Vehicle for ribociclib was 0.5% methylcellulose. Vehicle for fulvestrant was 10% w/v ethanol, 10% w/v benzyl alcohol, 15% w/v benzyl benzoate, made up to 100% w/v with castor oil. […] Tumor volumes were measured twice per week in efficacy studies and calculated using (width^2×length)/2, where all measurements are in millimeters (mm) and the tumor volume is in mm^3. Body weights were recorded twice per week. […] Tumor growth inhibition (TGI) was calculated as follows, where tumor volume is in mm^3: […]

[3] = Clinical Pharmacology Study: safety in healthy volunteers; conditions: 200 mg, 47 healthy participants
[4] = Biopharmaceutics Classification System classification; assay type: physicochemical
MCF7 cells = assay: Live-cell imaging proliferation assay (Incucyte), MCF7; assay type: cell-based; conditions: for GI50: Homo sapiens, MCF7, 120 h, read-out: approximate GI50; for mean decrease in MCF7 cell growth relative to control: 5 days, Compound A 10 nM
Excerpt: (§3) FIGS. 1A-1H are graphs showing quantification of the MCF7 and T47D live-cell imaging proliferation assays. […] Each plot is representative of three independent experiments. […] Each plot is representative of three independent experiments, except for the T47D fulvestrant arms in FIGS. 1A and 1C, which are the result of 2 independent experiments). FIGS. 1B, 1D, 1F and 1H show differences in relative MCF7 and T47D cell growth compared to vehicle control at 120-hours of treatment. Graphs show the mean of three independent experiments, except for the T47D fulvestrant arms in FIGS. 1B and 1D, which are the result of 2 independent experiments). Error bars=standard error of the mean (SEM). *p<0.025, **p≤0.008, ***p≤0.0006, ****p<0.0001, ns=not significant (one-way ANOVA test).
(§4) MCF7 or T47D cells were seeded in 6 well plates and treated with the indicated concentrations of compounds. The plate was then placed in the Incucyte® S3 Live-Cell Analysis System and images were acquired every 4 hours for a total of 5 days. Data were analyzed using the Incucyte® Software v2020C which quantified cell surface area coverage as confluence values. Relative growth was calculated for all timepoints for all growth conditions relative to the confluence value observed for the control at 120 hours (FIGS. 1A and 1C). Graphing and statistical analyses were performed using Graphpad Prism (GraphPad Software).
(§5) For fulvestrant and fulvestrant plus abemaciclib, mean decreases in MCF7 cell growth were 48% and 68%, respectively.

T47D cells = assay: Live-cell imaging proliferation assay (Incucyte), T47D; assay type: cell-based; conditions: Homo sapiens, 120 h; for GI50: read-out: approximate GI50
Excerpt: as §3, §4, §5

[5] = Exposure of Compound B relative to Compound A (preclinical data)
[6] = FIH Study Part C: pharmacokinetics in patients with breast cancer; assay type: in vivo, human; conditions: preliminary
Protocol: Additional evaluation will include single- and multiple-dose pharmacokinetics and biochemical activity.
Palbociclib was administered orally once a day at 125 mg/day for 21 days followed by 7 days off treatment for each 28-day cycle according to product labeling and in compliance with its local prescribing information.
Anticancer Drugs. 2018 March; 29 (3): 271280).

ER = target: T1, ER (Homo sapiens, UniProt P03372); assay: ER degradation
T1 construct: degradation by PROTAC
T1 sequence (P03372 1-595): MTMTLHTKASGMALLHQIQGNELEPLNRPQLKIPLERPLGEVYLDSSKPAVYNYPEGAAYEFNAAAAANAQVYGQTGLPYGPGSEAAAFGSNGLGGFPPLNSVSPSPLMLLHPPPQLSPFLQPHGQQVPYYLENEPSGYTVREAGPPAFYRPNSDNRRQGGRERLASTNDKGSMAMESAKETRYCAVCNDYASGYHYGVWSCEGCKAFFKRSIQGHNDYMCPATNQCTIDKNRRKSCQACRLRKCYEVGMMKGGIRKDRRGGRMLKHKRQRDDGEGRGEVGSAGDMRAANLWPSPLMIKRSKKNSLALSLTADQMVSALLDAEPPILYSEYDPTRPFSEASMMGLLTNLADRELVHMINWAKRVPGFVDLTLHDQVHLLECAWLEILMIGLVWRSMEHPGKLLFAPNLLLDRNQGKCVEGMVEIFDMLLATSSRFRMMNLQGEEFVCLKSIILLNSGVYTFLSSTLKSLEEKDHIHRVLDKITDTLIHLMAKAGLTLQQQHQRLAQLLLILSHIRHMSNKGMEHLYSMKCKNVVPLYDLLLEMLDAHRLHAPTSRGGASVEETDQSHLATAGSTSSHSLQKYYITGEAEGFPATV

[7] = system: MCF7 orthotopic xenograft; assay: MCF7 orthotopic xenograft model, abemaciclib study; assay type: in vivo, NOD/SCID mice; conditions: 28 days; Compound A 30 mg/kg, abemaciclib 30 mg/kg orally QD, fulvestrant 200 mg/kg SC; FIG. 3A
Protocol: Briefly, MCF7 cells were orthotopically implanted into the mammary fat pads of NOD/SCID female mice. 17β-estradiol 0.72 mg 90-day pellet (Innovative Research of America) were implanted 2-3 days prior to MCF7 cell implant. […] Fulvestrant-treated mice were dosed subcutaneously twice per week for 2 weeks followed by once weekly for 2 weeks.
Eight- to ten-week-old female NOD/SCID mice were surgically implanted with a 0.36 mg 90-day release 17β-estradiol pellet subcutaneously. One to two days later each mouse was injected with 5×10^6/200 μL MCF7 cells into one mammary fat pad. […] Fulvestrant (200 mg/kg, subcutaneously; twice per week for 2 weeks followed by once-weekly for 2 weeks) was also evaluated as a single agent and in combination with abemaciclib and ribociclib. […]
Vehicle for abemaciclib was 1% hydroxymethyl cellulose (HEC) in 20 mM HCl pH2. […] Tumor volumes were measured twice per week in efficacy studies and calculated using (width^2×length)/2, where all measurements are in millimeters (mm) and the tumor volume is in mm^3. Body weights were recorded twice per week. […] Tumor growth inhibition (TGI) was calculated as follows, where tumor volume is in mm^3:

[8] = system: MCF7 orthotopic xenograft; assay: MCF7 orthotopic xenograft model, ribociclib study; assay type: in vivo, NOD/SCID mice; conditions: 28 days; Compound A 30 mg/kg, ribociclib 75 mg/kg orally QD, fulvestrant 200 mg/kg SC; FIG. 3B
Protocol: Mean tumor volumes are reported ±SEM. Single-day dosing holidays are indicated by small black arrows.
Compounds dosed as single agents or in combination, 10 mice/arm.
as §1
Eight- to ten-week-old female NOD/SCID mice were surgically implanted with a 0.36 mg 90-day release 17β-estradiol pellet subcutaneously. […] Fulvestrant (200 mg/kg, subcutaneously; twice per week for 2 weeks followed by once-weekly for 2 weeks) was also evaluated as a single agent and in combination with abemaciclib and ribociclib. […]
as §2, with “pH2.” for “pH2. Vehicle for ribociclib was 0.5% methylcellulose. Vehicle for fulvestrant was 10% w/v ethanol, 10% w/v benzyl alcohol, 15% w/v benzyl benzoate, made up to 100% w/v with castor oil.”

[9] = read-out: mean change in T47D cell growth relative to control
[10] = read-out: mean decrease in T47D cell growth relative to control
[11] = with palbociclib, 180 up to 500 mg QD Compound A, Cycle 1 Day 1 and Day 15
[12] = abemaciclib experiment, fulvestrant 1 nM, abemaciclib 40 nM (approx. GI50)

## O=C1CC[C@H](N2Cc3cc(N4CCN(CC5CCN(c6ccc([C@@H]7c8ccc(O)cc8CC[C@@H]7c7ccccc7)cc6)CC5)CC4)ccc3C2=O)C(=O)N1 [Compound A, (S)-3-(5-(4-((1-(4-((1R,2S)-6-hydroxy-2-phenyl-1,2,3,4-tetrahydronaphthalen-1-yl)phenyl)piperidin-4-yl)methyl)piperazin-1-yl)-1-oxoisoindolin-2-yl)piperidine-2,6-dione]
[1]
  SAEs, SARs or deaths: No SAEs, SARs or deaths were reported
[2]
  interconversion to Compound B: can interconvert
MCF7 xenograft
  tumor growth inhibition (TGI): 105%
[3]
  TRAEs of Grade 2 or higher: no TRAEs of Grade 2 or higher were reported
  tolerability: well-tolerated
[4]
  Biopharmaceutics Classification System Class: Class IV
  permeability (BCS): low permeability
  solubility (BCS): low solubility
MCF7 cells
  GI50: ~10 nM
T47D cells
  GI50: ~10 nM
T47D cells; [9]
  inhibition at 0.01 µM: 41%
T47D cells; [10]
  inhibition at 0.01 µM: 42%

## O=C1CC[C@@H](N2Cc3cc(N4CCN(CC5CCN(c6ccc([C@@H]7c8ccc(O)cc8OC[C@@H]7c7ccccc7)cc6)CC5)CC4)ccc3C2=O)C(=O)N1 [Compound B]
[5]
  exposure of Compound B compared to Compound A: < 26%
[6]; [11]
  AUCtau, dose dependence: dose-dependent increases
  Cmax, dose dependence: dose-dependent increases
ER
  degradation of the ER: does not degrade the ER

## CCN1CCN(Cc2ccc(Nc3ncc(F)c(-c4cc(F)c5nc(C)n(C(C)C)c5c4)n3)nc2)CC1 [abemaciclib, N-(5-((4-ethylpiperazin-1-yl)methyl)pyridin-2-yl)-5-fluoro-4-(4-fluoro-1-isopropyl-2-methyl-1H-benzo[d]imidazol-6-yl)pyrimidin-2-amine]
[7]
  tumor growth inhibition (TGI): 50%
MCF7 cells
  GI50: ~40 nM
MCF7 cells; [12]
  mean decrease in MCF7 cell growth relative to control: 49%
T47D cells
  GI50: ~40 nM
T47D cells; [10]
  inhibition at 0.04 µM: 32%

## C[C@]12CC[C@@H]3c4ccc(O)cc4C[C@@H](CCCCCCCCC[S+]([O-])CCCC(F)(F)C(F)(F)F)[C@H]3[C@@H]1CC[C@@H]2O (stereo partly shown) [fulvestrant]
[7]
  tumor growth inhibition (TGI): 42%
[8]
  tumor growth inhibition (TGI): 31%
MCF7 xenograft
  tumor growth inhibition (TGI): 46%
MCF7 cells
  GI50: ~1 nM
MCF7 cells; [12]
  mean decrease in MCF7 cell growth relative to control: 48%
T47D cells
  GI50: ~1 nM
T47D cells; [10]
  inhibition at 0.001 µM: 16%

## CC(=O)c1c(C)c2cnc(Nc3ccc(N4CCNCC4)cn3)nc2n(C2CCCC2)c1=O [palbociclib, 6-acetyl-8-cyclopentyl-5-methyl-2-(5-piperazin-1-yl-pyridin-2-ylamino)-8H-pyrido[2,3-d]pyrimidin-7-one]
[6]; Cycle 1 Day 15, 125 mg QD palbociclib with 500 mg QD Compound A
  increase in palbociclib AUCtau vs PALOMA-1 and PALOMA-2: ~34%

## CN(C)C(=O)c1cc2cnc(Nc3ccc(N4CCNCC4)cn3)nc2n1C1CCCC1 [ribociclib, 7-cyclopentyl-N,N-dimethyl-2-[(5-piperazin-1-ylpyridin-2-yl)amino]pyrrolo[2,3-d]pyrimidine-6-carboxamide]
[8]
  tumor growth inhibition (TGI): 58%
MCF7 cells
  GI50: ~40 nM
MCF7 cells; ribociclib experiment, ribociclib 40 nM (approx. GI50)
  mean decrease in MCF7 cell growth relative to control: 44%
T47D cells
  GI50: ~40 nM
T47D cells; [9]
  inhibition at 0.04 µM: 32%

From US20260335306A1, “DOSAGE REGIMENS OF ESTROGEN RECEPTOR DEGRADERS” (priority 2022, published 2026)
